Data from patent publication US10975069B2, “Sigma-2 receptor ligand drug conjugates as antitumor compounds, methods of synthesis and uses thereof” (priority 2014, dated 2021).

Assay: Toxicity study (necropsy, CBC, clinical chemistry) in tumor bearing mice
Assay type: in vivo, C57BL/6 mice
Settings: mouse, in vivo
Description: Six adult female mice were submitted to necropsy. The strain designation of the mice was C57BL/6. […]
Animal studies were performed according to the animal studies protocol approved by Washington University Institutional Animal Care Facility. In vivo studies with mice were performed to compare the effects of SW V-49s, SV119. Erastin, a combination of SV119 with Erastin, and vehicle. […] C57BL/6 mice (6 weeks old. National Cancer Institute Laboratories) were injected in the right flank with 200 μL single cell suspension of KCKO cells in RPMI medium (25×10^4/10^5 cells per mouse). Mice were randomized into four groups (n=15). Treatment was started when the mean tumor diameter was ^˜5 mm. […] Erastin, equimolar mix of SV119 and Erastin. Tumors were measured every other day with a digital caliper. Several mice from different treatment groups were sent to the Division of Comparative Medicine in our institution for pathologic evaluation. Blood was collected for complete blood count (CBC) and biochemical analysis (AST, ALT, BUN, total bilirubin, and Cr). Organs were examined grossly and histologically.

SW IV-134
differences in laboratory values (biochemical analysis) versus vehicle: not statistically significant
